Biological target: T1, Gag-Pol polyprotein [489-587] (Human immunodeficiency virus 1, UniProt P04585)
T1 construct: 489-587
Experiment: Protease Inhibition Assay
Conditions: not given
Method: (§1) Sensitivity of HIV-1 protease activity to protease inhibitors was determined by a peptide substrate cleavage assay. Protease products were analyzed on a reverse-phase high-pressure liquid chromatograph.

SMILES	IC50
Cc1cc(SC2C(=O)CC(CCc3ccccc3)(C(C)C)OC2=O)c(C(C)(C)C)cc1NS(=O)(=O)c1cccs1 (configuration not stated)	3.6 nM
Cc1cc(SC2C(=O)CC(CCc3ccccc3)(C(C)C)OC2=O)c(C(C)(C)C)cc1OS(=O)(=O)Cn1ccnc1 (configuration not stated)	3 nM
Cc1cc(SC2C(=O)CC(CCc3ccc(N)cc3)(C(C)C)OC2=O)c(C(C)(C)C)cc1OS(=O)(=O)c1cccnc1 (configuration not stated)	4.1 nM
CCCC1(CCc2ccc(O)cc2)CC(=O)C(Sc2cc(C)c(OS(=O)(=O)Cn3ccnc3)cc2C(C)(C)C)C(=O)O1 (configuration not stated)	2.2 nM
Cc1cc(SC2C(=O)CC(C)(CCc3ccc(O)cc3)OC2=O)c(C(C)(C)C)cc1OS(=O)(=O)Cn1ccnc1 (configuration not stated)	2 nM
Cc1cc(SC2C(=O)CC(CCc3ccc(O)cc3)(C(C)C)OC2=O)c(C(C)(C)C)cc1OS(=O)(=O)Cn1ccnc1 (configuration not stated)	2.4 nM
CCNS(=O)(=O)Oc1cc(C(C)(C)C)c(SC2C(=O)CC(CCc3ccc(O)cc3)(C(C)C)OC2=O)cc1C (configuration not stated) [6-Alkyl-5,6-Dihydropyran-2-one 20]	4.9 nM
Cc1cc(SC2C(=O)CC(C)(CCc3ccc(O)cc3)OC2=O)c(C(C)(C)C)cc1NS(=O)(=O)Cn1ccnc1 (configuration not stated)	1.9 nM
Cc1cc(SC2C(=O)CC(C)(CCc3ccc(O)cc3)OC2=O)c(C(C)(C)C)cc1NS(=O)(=O)c1ccc(-c2cccs2)cc1 (configuration not stated)	6.3 nM
Cc1cc(SC2C(=O)CC(CCc3ccc(O)cc3)(C3CCCCC3)OC2=O)c(C(C)(C)C)cc1OS(=O)(=O)Cn1ccnc1 (configuration not stated)	8 nM
Cc1cc(SC2C(=O)CC(CCc3ccc(O)cc3)(C(C)C)OC2=O)c(C(C)(C)C)cc1OS(=O)(=O)N(C)C (configuration not stated) [6-Alkyl-5,6-Dihydropyran-2-one 22]	3.4 nM
CCNS(=O)(=O)Oc1cc(C(C)(C)C)c(SC2C(=O)CC(CCc3ccc(N)cc3)(C(C)C)OC2=O)cc1C (configuration not stated) [4-({6-[2-(4-aminophenyl)ethyl]-4-hydroxy-2-oxo-6-(propan-2-yl)-5,6-dihydro-2H-pyran-3-yl}sulfanyl)-5-tert-butyl-2-methylphenyl N-ethylsulfamate]	4.3 nM
Cc1cc(SC2C(=O)CC(CCc3ccc(N)cc3)(C(C)C)OC2=O)c(C(C)(C)C)cc1OS(=O)(=O)Cn1ccnc1 (configuration not stated)	2.2 nM
CCNS(=O)(=O)Oc1cc(C(C)(C)C)c(SC2C(=O)CC(CCc3ccccc3)(C(C)C)OC2=O)cc1C (configuration not stated)	8.9 nM
Cc1cc(SC2C(=O)CC(CCc3ccc(O)cc3)(CC(C)C)OC2=O)c(C(C)(C)C)cc1OS(=O)(=O)Cn1ccnc1 (configuration not stated)	3.6 nM
Cc1cc(SC2C(=O)CC(CCc3ccccc3)(C(C)C)OC2=O)c(C(C)(C)C)cc1NS(=O)(=O)Cn1ccnc1 (configuration not stated)	1.9 nM
Cc1cc(SC2C(=O)CC(CCc3ccc(N)cc3)(C(C)C)OC2=O)c(C(C)(C)C)cc1OS(=O)(=O)c1cccs1 (configuration not stated)	18.5 nM
Cc1cc(SC2C(=O)CC(CCc3ccc(N)cc3)(C(C)C)OC2=O)c(C(C)(C)C)cc1OS(=O)(=O)N(C)C (configuration not stated) [4-({6-[2-(4-aminophenyl)ethyl]-4-hydroxy-2-oxo-6-(propan-2-yl)-5,6-dihydro-2H-pyran-3-yl}sulfanyl)-5-tert-butyl-2-methylphenyl N,N-dimethylsulfamate]	3.9 nM

Biological target: T2, Dimer of Gag-Pol polyprotein [489-587] (Human immunodeficiency virus 1, UniProt P12497)
T2 construct: 489-587
Experiment: Protease Inhibition Assay
Conditions: not given
Method: as §1

SMILES	Ki	IC50
Cc1cc(SC2C(=O)CC(CCc3ccccc3)(C(C)C)OC2=O)c(C(C)(C)C)cc1NS(=O)(=O)c1ccc(C(F)(F)F)cn1 (configuration not stated) [N-(5-tert-butyl-4-{[4-hydroxy-2-oxo-6-(2-phenylethyl)-6-(propan-2-yl)-5,6-dihydro-2H-pyran-3-yl]sulfanyl}-2-methylphenyl)-5-(trifluoromethyl)pyridine-2-sulfonamide]	1.04 nM	–
Cc1cc(SC2C(=O)CC(CCc3ccc(O)cc3)(C3CCCCC3)OC2=O)c(C(C)(C)C)cc1OS(=O)(=O)c1nccn1C (configuration not stated) [5-tert-butyl-4-({6-cyclohexyl-4-hydroxy-6-[2-(4-hydroxyphenyl)ethyl]-2-oxo-5,6-dihydro-2H-pyran-3-yl}sulfanyl)-2-methylphenyl 1-methyl-1H-imidazole-2-sulfonate]	–	8 nM
Cc1cc(SC2C(=O)C[C@](CCc3ccc(O)cc3)(C(C)C)OC2=O)c(C(C)(C)C)cc1NS(=O)(=O)c1ccc(C(F)(F)F)cn1 (stereo partly drawn) [N-(5-tert-butyl-4-{[(6R)-4-hydroxy-6-[2-(4-hydroxyphenyl)ethyl]-2-oxo-6-(propan-2-yl)-5,6-dihydro-2H-pyran-3-yl]sulfanyl}-2-methylphenyl)-5-(trifluoromethyl)pyridine-2-sulfonamide]	9.54 nM	–
Cc1cc(SC2C(=O)CC(CCc3ccc(O)cc3)(C(C)C)OC2=O)c(C(C)(C)C)cc1OS(C)(=O)=O (configuration not stated) [5-tert-butyl-4-({4-hydroxy-6-[2-(4-hydroxyphenyl)ethyl]-2-oxo-6-(propan-2-yl)-5,6-dihydro-2H-pyran-3-yl}sulfanyl)-2-methylphenyl methanesulfonate]	–	2.2 nM
Cc1cc(SC2C(=O)CC(CCc3ccc(N)cc3)(C(C)C)OC2=O)c(C(C)(C)C)cc1OS(=O)(=O)c1cccc(-c2cccnc2)c1 (configuration not stated) [4-({6-[2-(4-aminophenyl)ethyl]-4-hydroxy-2-oxo-6-(propan-2-yl)-5,6-dihydro-2H-pyran-3-yl}sulfanyl)-5-tert-butyl-2-methylphenyl 3-(pyridin-3-yl)benzene-1-sulfonate]	–	4.1 nM
Cc1cc(SC2C(=O)CC(CCc3ccc(N)cc3)(C(C)C)OC2=O)c(C(C)(C)C)cc1OS(=O)(=O)c1ccccc1-c1cccs1 (configuration not stated) [4-({6-[2-(4-aminophenyl)ethyl]-4-hydroxy-2-oxo-6-(propan-2-yl)-5,6-dihydro-2H-pyran-3-yl}sulfanyl)-5-tert-butyl-2-methylphenyl 2-(thiophen-2-yl)benzene-1-sulfonate]	–	18.5 nM
Cc1cc(SC2C(=O)CC(CCc3ccccc3)(C(C)C)OC2=O)c(C(C)(C)C)cc1NS(=O)(=O)c1nccn1C (configuration not stated) [N-(5-tert-butyl-4-{[4-hydroxy-2-oxo-6-(2-phenylethyl)-6-(propan-2-yl)-5,6-dihydro-2H-pyran-3-yl]sulfanyl}-2-methylphenyl)-1-methyl-1H-imidazole-2-sulfonamide]	–	1.9 nM
Cc1cc(SC2C(=O)CC(CCc3ccc(O)cc3)(CC(C)C)OC2=O)c(C(C)(C)C)cc1OS(=O)(=O)c1nccn1C (configuration not stated) [5-tert-butyl-4-({4-hydroxy-6-[2-(4-hydroxyphenyl)ethyl]-6-(2-methylpropyl)-2-oxo-5,6-dihydro-2H-pyran-3-yl}sulfanyl)-2-methylphenyl 1-methyl-1H-imidazole-2-sulfonate]	–	3.6 nM
Cc1cc(SC2C(=O)CC(CCc3ccc(O)cc3)(C(C)C)OC2=O)c(C(C)(C)C)cc1OS(=O)(=O)c1nccn1C (configuration not stated) [5-tert-butyl-4-({4-hydroxy-6-[2-(4-hydroxyphenyl)ethyl]-2-oxo-6-(propan-2-yl)-5,6-dihydro-2H-pyran-3-yl}sulfanyl)-2-methylphenyl 1-methyl-1H-imidazole-2-sulfonate]	–	2.4 nM
Cc1cc(SC2C(=O)C[C@](CCc3ccccc3)(C(C)C)OC2=O)c(C(C)(C)C)cc1NS(=O)(=O)c1ccc(C(F)(F)F)cn1 (stereo partly drawn) [N-(5-tert-butyl-4-{[(6R)-4-hydroxy-2-oxo-6-(2-phenylethyl)-6-(propan-2-yl)-5,6-dihydro-2H-pyran-3-yl]sulfanyl}-2-methylphenyl)-5-(trifluoromethyl)pyridine-2-sulfonamide]	6.4 nM	–
Cc1cc(SC2C(=O)C[C@](CCc3ccc(O)cc3)(C(C)C)OC2=O)c(C(C)(C)C)cc1N (stereo partly drawn) [(6R)-3-[(4-amino-2-tert-butyl-5-methylphenyl)sulfanyl]-4-hydroxy-6-[2-(4-hydroxyphenyl)ethyl]-6-(propan-2-yl)-5,6-dihydro-2H-pyran-2-one]	13 nM	–
Cc1cc(SC2C(=O)CC(CCc3ccccc3)(C(C)C)OC2=O)c(C(C)(C)C)cc1OS(=O)(=O)c1nccn1C (configuration not stated) [5-tert-butyl-4-{[4-hydroxy-2-oxo-6-(2-phenylethyl)-6-(propan-2-yl)-5,6-dihydro-2H-pyran-3-yl]sulfanyl}-2-methylphenyl 1-methyl-1H-imidazole-2-sulfonate]	–	3 nM
Cc1cc(SC2C(=O)CC(CCc3ccc(N)cc3)(C(C)C)OC2=O)c(C(C)(C)C)cc1OS(=O)(=O)c1nccn1C (configuration not stated) [4-({6-[2-(4-aminophenyl)ethyl]-4-hydroxy-2-oxo-6-(propan-2-yl)-5,6-dihydro-2H-pyran-3-yl}sulfanyl)-5-tert-butyl-2-methylphenyl 1-methyl-1H-imidazole-2-sulfonate]	–	2.2 nM
CCCC1(CCc2ccc(O)cc2)CC(=O)C(Sc2cc(C)c(OS(=O)(=O)c3nccn3C)cc2C(C)(C)C)C(=O)O1 (configuration not stated) [5-tert-butyl-4-({4-hydroxy-6-[2-(4-hydroxyphenyl)ethyl]-2-oxo-6-propyl-5,6-dihydro-2H-pyran-3-yl}sulfanyl)-2-methylphenyl 1-methyl-1H-imidazole-2-sulfonate]	–	2.2 nM
Cc1cc(SC2C(=O)CC(C)(CCc3ccc(O)cc3)OC2=O)c(C(C)(C)C)cc1OS(=O)(=O)c1nccn1C (configuration not stated) [5-tert-butyl-4-({4-hydroxy-6-[2-(4-hydroxyphenyl)ethyl]-6-methyl-2-oxo-5,6-dihydro-2H-pyran-3-yl}sulfanyl)-2-methylphenyl 1-methyl-1H-imidazole-2-sulfonate]	–	2 nM

Same assay, conditions: pH 6.2; 37 °C

SMILES	IC50
Cc1cc(SC2C(=O)CC(CCc3ccccc3)(C(C)C)OC2=O)c(C(C)(C)C)cc1NS(=O)(=O)c1cccs1 (configuration not stated)	3.6 nM
Cc1cc(SC2C(=O)CC(C)(CCc3ccc(O)cc3)OC2=O)c(C(C)(C)C)cc1NS(=O)(=O)c1nccn1C (configuration not stated) [N-[5-tert-butyl-4-({4-hydroxy-6-[2-(4-hydroxyphenyl)ethyl]-6-methyl-2-oxo-5,6-dihydro-2H-pyran-3-yl}sulfanyl)-2-methylphenyl]-1-methyl-1H-imidazole-2-sulfonamide]	1.9 nM
Cc1cc(SC2C(=O)CC(CCc3ccccc3)(C(C)C)OC2=O)c(C(C)(C)C)cc1NS(=O)(=O)c1ccc(C#N)cc1 (configuration not stated) [N-(5-tert-butyl-4-{[4-hydroxy-2-oxo-6-(2-phenylethyl)-6-(propan-2-yl)-5,6-dihydro-2H-pyran-3-yl]sulfanyl}-2-methylphenyl)-4-cyanobenzene-1-sulfonamide]	9.1 nM
Cc1cc(SC2C(=O)CC(C)(CCc3ccc(O)cc3)OC2=O)c(C(C)(C)C)cc1NS(=O)(=O)c1cccc(-c2cccs2)c1 (configuration not stated) [N-[5-tert-butyl-4-({4-hydroxy-6-[2-(4-hydroxyphenyl)ethyl]-6-methyl-2-oxo-5,6-dihydro-2H-pyran-3-yl}sulfanyl)-2-methylphenyl]-3-(thiophen-2-yl)benzene-1-sulfonamide]	6.3 nM
